The test system of one data set is SARS-CoV-2. The conditions noted are these: cited from earlier work.
For data set [1], the system named is PDI domain fragments (a, a′, ab, abb′, b′xa′). The data set is described as follows: Di-eosin-GSSG assay on isolated PDI domain fragments. Format: biochemical. The conditions noted are these: for inhibition of isolated a′ domain cleavage of di-eosin-GSSG: 20 μM.
Method: (§1) Di-eosin-GSSG disulfide reductase assay. The probe di-eosin glutathione disulfide, di-eosin-GSSG, was prepared by incubating 100 μM of GSSG with 1 mM of eosin isothiocyanate in 100 mM potassium phosphate containing 2 mM EDTA (pH 7.4), at 25° C. overnight in the dark. The mixture was passed down a PD-10 column and different fractions were collected. A fold change of fluorescence (Ex: 520 nm, Em: 550 nm) was calculated using samples subjected to either vehicle or 20 mM of DTT. Any fraction with a fold change >5 was kept. Using a stock of 10 mM eosin isothiocyanate, a standard curve was generated and concentration of samples were determined accordingly. Di-eosin-GSSG cleavage of purified thiol isomerases and PDI domains was monitored in a 96-well fluorescence plate format. PDI, CGXC-PDI variants, ERp5, ERp57, ERp46 and PDI domains were assayed at 50 nM in the presence or absence of the indicated small molecules. The assay included a thiol isomerase assay buffer (39 mM KH2PO4, 61 mM K2HPO4, 2 mM EDTA, 5 M DTT, pH 7.4) and 150 nM of the di-eosin-GSSG probe. The increase in fluorescence was determined for 60 min by excitation at 520 nm and emission at 550 nm in a Synergy Biotek 4. The reduction of 150 nM di-eosin-GSSG by 5 μM DTT in the presence or absence of mentioned small molecule or proteins served as a negative control.
For data set [2], the system named is recombinant PDI, ERp57, and ERp5. The data set can be described thus: Di-eosin-GSSG assay, thiol isomerases at 20 μM compound. The conditions noted are these: 15 minute incubation. Format: biochemical.
Data set [3] deals with T1, PDI (Homo sapiens, UniProt P07237).
T1 construct: FLAG; made in house; host or cells: Escherichia coli Origami B (DE3)
T1 sequence (P07237 18-508): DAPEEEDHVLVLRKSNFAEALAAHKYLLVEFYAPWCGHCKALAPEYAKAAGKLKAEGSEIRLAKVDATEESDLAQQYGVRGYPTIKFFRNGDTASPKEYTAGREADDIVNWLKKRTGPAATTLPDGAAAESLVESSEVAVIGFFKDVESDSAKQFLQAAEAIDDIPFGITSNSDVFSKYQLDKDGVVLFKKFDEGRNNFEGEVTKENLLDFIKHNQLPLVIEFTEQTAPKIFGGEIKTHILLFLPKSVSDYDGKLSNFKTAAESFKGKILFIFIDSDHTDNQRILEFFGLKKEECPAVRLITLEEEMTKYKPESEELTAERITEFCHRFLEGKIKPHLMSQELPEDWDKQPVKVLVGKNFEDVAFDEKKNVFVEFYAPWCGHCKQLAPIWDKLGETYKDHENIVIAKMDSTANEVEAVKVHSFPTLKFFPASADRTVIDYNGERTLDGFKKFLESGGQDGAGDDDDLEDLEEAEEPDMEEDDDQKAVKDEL
The data set can be described thus: Insulin reductase assay. Format: biochemical. The conditions noted are these: 20 μM.
Method: Insulin reductase assay. Insulin was prepared by mixing 12.5 mg/mL insulin in 50 mM Tris-HCl, pH 8. 1 M HCl was carefully added to drop the pH to 2.0 for solution clarification. Once the solution clarifies, 1 M NaOH was added to rapidly adjust the pH back to 8.0. The solution was then adjusted to 1.5 mM (10 mg/mL) with 50 mM Tris-HCl, aliquoted and stored in −20° C. until use. 2× concentrations of thiol isomerases were prepared (final concentrations as indicated in each assay) and mixed with 1.2 mM DTT (final 0.3 mM) and 0.4 mM insulin (final 0.1 mM) using a thiol isomerase activity assay buffer. Insulin precipitation from enzyme-mediated reduction was assayed in 96-well clear bottom plates at 650 nm absorption.

Data set [4] concerns the target T1, PDI. The data set is described as follows: Di-eosin-GSSG disulfide reductase assay, PDI. Format: biochemical.
Method: as §1
The target in a further data set is SARS-CoV-2 M^pro (Severe acute respiratory syndrome coronavirus 2, UniProt P0DTD1).
The target in data set [5] is T1, PDI. The data set can be described thus: SDS-PAGE molecular weight shift (alkylation of PDI free thiols). It counts as biochemical. An excerpt:
FIG. 5 is an image of gel showing detection of PDI free thiol by the labeling of acetamido maleimidylstilbene disulfonic acid (AMS), which shifts the protein to a higher apparent molecular weight.
4-acetomido-4′-maleimidylstilbene-2,2′ disulfonic acid (AMS), which shifts the mass of the protein by 500 Da for every cysteine alkylated, was used as a positive control. […] N-ethylmaleimide (NEM) was used for a control experiment because covalent alkylation of the free thiols will expectedly prevent PDI activity (FIG. 6A).

In data set [6] the test system is thrombus formation in carotid artery after FeCl3. The data set can be described thus: Ferric chloride thrombosis model. Format: in vivo, C57Bl/6J mice. The note with it: punicalagin by oral gavage. On the procedure: Wildtype C57Bl/6J mice were exposed to 100 μg/g punicalagin via oral gavage (n=5) or vehicle (n=7). The carotid artery was surgically isolated, exposed to 10% w/v FeCl3 for 3 min, and visualized by fluorescence microscopy. Time to occlusion was monitored.
Ferric chloride thrombosis model. Thrombus formation induced by ferric chloride was assayed as previously described in Li W, et al. Circ. Res. 115:997-1006, 2014. The mice were treated by oral gavage with 100 μg/g punicalagin or vehicle control for 90 min prior to injury. Before the 90 min time point, the mice were anesthetized with a cocktail of 125 mg/kg ketamine and 12 mg/kg xylazine. The left jugular vein was cannulated for infusion of a DyLight 649 conjugated antibody against GPIbβ (Emfret Analytics; 0.1 μg/g) and 50 mg/kg pentobarbital for maintenance anesthetics. […] Thrombi formation was observed using a 10×0.3 NA water immersion objective mounted to an AX-70 fluorescence microscope (Olympus Japan) equipped with a CCD camera (ORCA Flash 4.0, Hamamatsu Photonics, Japan). Data were analyzed by Slidebook 6.0 (Intelligent Imaging Innovations).
Punicalagin inhibits thrombus formation. […] The ability of orally delivered punicalagin to inhibit thrombus formation following vascular injury was assessed. […] Vessel patency was visualized by fluorescence microscopy using anti-GPIbβ antibody to monitor for vascular occlusion. […]

Data set [7] deals with bleeding following tail clip. The data set is described as follows: Tail clip assay of hemostasis. The note with it: punicalagin ingestion.
In another data set the target is T2, ERp5 (Homo sapiens, UniProt Q15084).
T2 construct: recombinant His-tagged full-length ERp5, ERp72; His-tag; made in house; host or cells: Escherichia coli Origami B (DE3)
T2 sequence (Q15084 20-440): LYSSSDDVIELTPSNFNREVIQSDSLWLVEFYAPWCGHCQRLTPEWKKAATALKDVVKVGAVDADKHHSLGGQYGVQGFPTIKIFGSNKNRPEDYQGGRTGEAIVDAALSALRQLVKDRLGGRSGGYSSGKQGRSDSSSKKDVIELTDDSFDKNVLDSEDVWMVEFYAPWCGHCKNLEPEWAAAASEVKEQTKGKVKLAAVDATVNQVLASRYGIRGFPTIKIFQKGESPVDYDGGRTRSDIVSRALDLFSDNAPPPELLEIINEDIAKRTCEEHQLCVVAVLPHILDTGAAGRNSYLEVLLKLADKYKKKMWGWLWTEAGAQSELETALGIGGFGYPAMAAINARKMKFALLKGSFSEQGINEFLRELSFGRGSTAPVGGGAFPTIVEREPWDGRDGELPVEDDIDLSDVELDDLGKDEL
The data set is described as follows: Di-eosin-GSSG disulfide reductase assay, ERp5. It counts as biochemical. The note with it: 20 μM. The source says:
Recombinant protein purification. Recombinant ‘double-tagged’ (streptavidin-binding protein-tagged and FLAG-tagged) full-length PDI, ERp57, recombinant His-tagged full-length ERp5, ERp72, PDI domain fragments, and PDI mutant were cloned into a pET-15b vector at the NdeI and BamHI sites and transformed into Escherichia coli Origami B (DE3) cells (EMD Chemicals). The recombinant proteins were expressed and isolated by affinity chromatography with complete His-Tag purification resin (Roche Applied Science) or Pierce High-Capacity Streptavidin Agarose beads and purified on a Superdex 200 (GE Healthcare).
Di-eosin-GSSG disulfide reductase assay. […] Any fraction with a fold change >5 was kept.

Where [8] appears, read: Table 1, IC50 curves on PDI activity (FIGS. 13B-E, 17A-E), read-out: Relative PDI inhibition.

This is an account of results in patent publication US20250134853A1, “COMPOUNDS AND METHODS FOR USING GALLOYLATED POLYPHENOLS TO TREAT DISEASES MEDIATED BY THIOL ISOMERASES” (Beth Israel Deaconess Medical Center, Inc., priority 2023, published 2025).

pIC50: −log10 of the molar value. “Also recorded” adds a separate entry of the source. Read-outs that look alike come from different tables or passages of the source.

Take `O=c1cc(-c2ccc(O)cc2)oc2cc(O)cc(O)c12` [apigenin, reference compound]: the “inhibition of SARS-CoV-2 / infection (in words)” value in the data set with SARS-CoV-2 was “inhibitors of SARS-CoV-2”.
Regarding “theaflavin 3-3′-digallate [Theaflavin 3,3′-gallate]”, in [1], the “inhibition of isolated a′ domain cleavage of di-eosin-GSSG” value (from here on “inhibition … of di-eosin-GSSG”) is on record as “inhibited the ability of isolated a′ domain to cleave di-eosin-GSSG”. Further, in data set [1] (a, ab, b′xa′, abb′ fragments, PGHG at 10 μM), the “inhibition of isolated PDI fragments” value is “inhibited isolated a and a′ fragments as well as ab, b′xa′ and abb′x fragments”. Also, in the data set on SARS-CoV-2, the “Inhibition of viral replication (cell system in which shown)” value (“Inhibition of viral replication” below) is given as “VeroE6/TMPRSS2”. Further, the “inhibition of thiol isomerases (PDI, ERp57, ERp5) in words” value (“inhibition of thiol isomerases” for short) in data set [2] was “strong inhibition of all three thiol isomerases”.
For the molecule `O=C(O[C@@H]1Cc2c(O)cc(O)cc2O[C@@H]1c1cc(=O)c(O)c2c(O)c(O)cc([C@H]3Oc4cc(O)cc(O)c4C[C@H]3O)c2c1)c1cc(O)c(O)c(O)c1` [Theaflavin 3-gallate], the “inhibition of the ability of PDI to reduce insulin” value on PDI [3] is given as “inhibited the ability of PDI to reduce insulin”. Also, the pIC50 on PDI [4] (setting [8]) was 5.47; on SARS-CoV-2 M^pro (literature values (Table 2); read-out: SARS-CoV-2 M^pro inhibition; cited from earlier work), 4.73. Also, the “inhibition … of di-eosin-GSSG” value in [1] is “inhibited the ability of isolated a′ domain to cleave di-eosin-GSSG”. Further, the “reduction of viral counts” value in the data set with SARS-CoV-2 (Vero cell assay) is recorded as 75%. Further, in the data set with SARS-CoV-2, the “Inhibition of viral replication” value is “Vero Cells”. Further, in [2], the “inhibition of thiol isomerases” value is given as “strong inhibition of all three thiol isomerases”.
On to `CC(=O)Nc1ccc(C=Cc2ccc(N3C(=O)C=CC3=O)cc2S(=O)(=O)O)c(S(=O)(=O)O)c1` [AMS, 4-acetomido-4′-maleimidylstilbene-2,2′ disulfonic acid, reference compound], for which the “shift in molecular weight of PDI in SDS polyacrylamide gel” value at PDI [5] is recorded as “induced a slight increase in molecular mass”.
Consider `O=C1O[C@H]2[C@@H]3OC(=O)c4cc(O)c(O)c(O)c4-c4c(O)c(O)c5oc(=O)c6c(c(O)c(O)c7oc(=O)c4c5c76)-c4c(cc(O)c(O)c4O)C(=O)OC[C@H]3OC(O)[C@@H]2OC(=O)c2cc(O)c(O)c(O)c2-c2c1cc(O)c(O)c2O` (mixture of isomers) [Punicalagin], for which the “vessels that never occluded” value in data set [6] (10% FeCl3 for 3 min) is on record as around 50%. In [6] (compared to controls), the “time for occlusion of vessels that clotted” value is listed as “consistently prolonged”. For the same molecule, on PDI [3], the “inhibition of the ability of PDI to reduce insulin” value was “inhibited the ability of PDI to reduce insulin”. For the same molecule, the results for the pIC50 at PDI [4] (setting [8]) and at SARS-CoV-2 M^pro (read-out: SARS-CoV-2 M^pro inhibition; literature values (Table 2); cited from earlier work) were 4.72 and 5.24, respectively. Further, in [1], the “inhibition … of di-eosin-GSSG” value is on record as “inhibited the ability of isolated a′ domain to cleave di-eosin-GSSG”. In addition, the “Inhibition of viral replication” value in the data set with SARS-CoV-2 was 293T-hACE2 and NIC-H460. Moreover, in the data set with SARS-CoV-2, the “inhibition of SARS-CoV-2 / infection (in words)” value was “inhibits both SARS-CoV-2 M^pro and omicron variants of SARS-CoV-2 infection”. Also, the “cessation of bleeding, Kaplan Meier curves” value in [7] is “prolonged bleeding”. For the same molecule, the total bleeding time in data set [7] (1 mm diameter tail transection) was 110 s. For the same molecule, the entries for the “inhibition of thiol isomerases” value in data set [2] and in data set [2] (listed as punicalagin) were “strong inhibition of thiol isomerases” and “strong thiol isomerase inhibition”, respectively.
`O=c1c(O)cc([C@H]2Oc3cc(O)cc(O)c3C[C@H]2O)cc2c([C@H]3Oc4cc(O)cc(O)c4C[C@H]3O)cc(O)c(O)c12` [Theaflavin]: on PDI [4], the “inhibition of PDI (in words)” value was “failed to inhibit PDI; also recorded: inactive compounds against PDI”. For the same molecule, at PDI [4] (setting [8]), the pIC50 was below 3.30. Also, in data set [2], the “inhibition of thiol isomerases” value is listed as “poor inhibition”.
Regarding `O=C(O)c1cc(O)c(O)c(O)c1` [Gallic Acid, 3,4,5-trihydroxybenzoic acid], at PDI [4], the pIC50 is below 3.30 and the “inhibition of PDI (in words)” value was “inactive compounds against PDI”. Also, the “inhibition of PDI (in words)” value at PDI [4] (listed as gallate) is on record as “failed to inhibit PDI”. The “inhibition of thiol isomerases” value in data set [2] is recorded as “Neither pinocembrin, gallic acid nor glucose showed substantial activity against thiol isomerases”.
Consider `O=C(O[C@@H]1Cc2c(O)cc(O)cc2O[C@H]1c1ccc(O)c(O)c1)c1cc(O)c(O)c(O)c1` [Catechin 3-gallate], for which the pIC50 on PDI [4] (setting [8]) was below 4.70. Moreover, on ERp5, the “activity against ERp5 (in words)” value is reported as “had activity against ERp5”. In addition, in data set [2], the “inhibition of thiol isomerases” value was “some inhibition, particularly of ERp5”.
In the case of `Oc1cc(O)c2c(c1)O[C@H](c1cc(O)c(O)c(O)c1)[C@H](O)C2` [EGC, epigallocatechin], the “inhibition of PDI (in words)” value against PDI [4] was “did not inhibit PDI; also recorded: inactive compounds against PDI”. The pIC50 at PDI [4] (setting [8]) was below 3.30. The “inhibition of thiol isomerases” value in data set [2] is listed as “relatively little activity”.
`O=C1C[C@@H](c2ccccc2)Oc2cc(O)cc(O)c21` [Pinocembrin]: the “inhibition of PDI (in words)” value at PDI [4] was “failed to inhibit PDI”. Also, the pIC50 at PDI [4] (setting [8]) is below 3.30. In addition, the “inhibition of thiol isomerases” value in data set [2] is on record as “no activity”.
Consider `O=C(O[C@@H]1Cc2c(O)cc(O)cc2O[C@@H]1c1cc(O)c(O)c(O)c1)c1cc(O)c(O)c(O)c1` [EGCG, epigallocatechin gallate], for which the “inhibition of PDI (in words)” value against PDI [4] was “did not inhibit PDI; also recorded: inactive compounds against PDI”. The pIC50 at PDI [4] (setting [8]) was 3.61. For the same molecule, the “inhibition of thiol isomerases” value in data set [2] is recorded as “relatively little activity”.
For the molecule Catechin, the “activity against ERp5 (in words)” value on ERp5 was “had activity against ERp5”.
